Patent US10975068B2, “6-aminopyridin-3-yl thiazoles as modulators of RORγT” (Janssen Pharmaceutica NV, priority 2016, dated 2021)
pIC50, pKd: −log10 of the molar value. Like-named read-outs stand apart in the source and are kept apart here.

Tests used:
[1] = target: human RORγt ligand binding domain (RORγt LBD) (Homo sapiens (Human), UniProt P51449); assay: RORγt ThermoFluor® assay (thermal shift binding); details: read-out: ThermoFluor® Assay, Kd
How it was run: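 Binding was inferred from thermal stabilisation (ΔTm) of the E. coli-expressed RORγt LBD (0.065 mg/mL), monitored by 1,8-ANS (60 μM) emission at 500 nm during a 1 °C/min ramp. Buffer was Hepes 100 mM pH 7.0 with NaCl, GSH and Tween-20.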

full-length human RORγt = full-length human RORγt (Homo sapiens (Human), UniProt P51449); assay: RORγt (full-length human) reporter assay, Conditions B or C; type: cell-based; details: for RORγt (FL) Reporter Assay B or C, % inhibition (value marked *): marked *: footnote not given; for inhibition at 3 µM: at 3 μM compound concentration
Sequence of full-length human RORγt (P51449 other isoform, or with tags, fused parts or gaps): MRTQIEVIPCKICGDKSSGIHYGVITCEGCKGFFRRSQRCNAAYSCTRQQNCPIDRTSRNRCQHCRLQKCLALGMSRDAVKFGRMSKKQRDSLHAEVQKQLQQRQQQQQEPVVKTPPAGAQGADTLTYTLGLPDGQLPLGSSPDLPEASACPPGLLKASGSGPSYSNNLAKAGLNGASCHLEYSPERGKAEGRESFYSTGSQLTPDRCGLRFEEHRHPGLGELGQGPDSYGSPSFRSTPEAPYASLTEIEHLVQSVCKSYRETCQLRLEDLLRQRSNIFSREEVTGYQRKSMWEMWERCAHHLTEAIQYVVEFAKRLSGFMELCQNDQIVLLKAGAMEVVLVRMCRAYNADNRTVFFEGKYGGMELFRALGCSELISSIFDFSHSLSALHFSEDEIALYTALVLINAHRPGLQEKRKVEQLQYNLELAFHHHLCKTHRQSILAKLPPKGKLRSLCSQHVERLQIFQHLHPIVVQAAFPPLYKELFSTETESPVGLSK
How it was run: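 Readout is dual luciferase: firefly (GAL4-driven) normalized to DMSO-only and saturating-reference controls, then to CMV-Renilla. Full-length human RORγt fused to GAL4-DBD was transiently expressed in HEK293T; compound exposure ran overnight (16-20 h) starting 4-6 h after transfection, final FBS 1.3%, DMSO 0.1%.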

[2] = Conditions B or C, read-out: RORγt (FL) Reporter Assay B or C, IC50
[3] = read-out: RORγt (FL) Reporter Assay B or C, % inhibition
[4] = read-out: RORγt (FL) Reporter Assay B or C, IC50

Sequence of human RORγt ligand binding domain (RORγt LBD) (P51449 other isoform, or with tags, fused parts or gaps): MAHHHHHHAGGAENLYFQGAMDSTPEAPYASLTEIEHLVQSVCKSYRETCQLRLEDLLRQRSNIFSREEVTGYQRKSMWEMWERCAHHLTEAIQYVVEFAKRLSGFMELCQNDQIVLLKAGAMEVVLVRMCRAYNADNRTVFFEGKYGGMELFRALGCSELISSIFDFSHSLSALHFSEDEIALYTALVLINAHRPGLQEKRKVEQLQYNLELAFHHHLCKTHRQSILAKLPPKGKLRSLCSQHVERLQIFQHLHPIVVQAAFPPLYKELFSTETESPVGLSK

Structure (SMILES) | pKd [1] | RORγt (FL) Reporter Assay B or C, % inhibition (value marked *) (full-length human RORγt; Conditions B or C) | pIC50 (full-length human RORγt; [2]) | inhibition at 3 µM (full-length human RORγt; [3]) | pIC50 (full-length human RORγt; [4]) | RORγt (FL) Reporter Assay B or C, % inhibition (value marked ***) (full-length human RORγt; Conditions B or C, marked ***: footnote not given) | inhibition at 0.3 µM (full-length human RORγt; at 0.3 μM compound concentration, read-out: RORγt (FL) Reporter Assay B or C, % inhibition) | pIC50 (full-length human RORγt; RORγt (FL) Reporter Assay B or C, IC50)
C[C@H]1CC(F)(F)CN1C(=O)c1nc(C(=O)NCC(C)(C)O)sc1-c1cnc(NCC(C)(C)C(F)(F)F)cc1C(F)(F)F [Example 121, (S)-4-(4,4-Difluoro-2-methylpyrrolidine-1-carbonyl)-N-(2-hydroxy-2-methylpropyl)-5-(6-((3,3,3-trifluoro-2,2-dimethylpropyl)amino)-4-(trifluoromethyl)pyridin-3-yl)thiazole-2-carboxamide] | 9.19 | 104* % | 7.60 | – | – | – | – | –
C[C@H](NC(=O)c1nc(C(=O)N2C3CCC2CC3)c(-c2cnc(N[C@@H](C3CC3)C(F)(F)F)cc2C(F)F)s1)C(C)(C)O [Example 317, 4-((1s,4s)-7-Azabicyclo[2.2.1]heptane-7-carbonyl)-5-(6-(((S)-1-cyclopropyl-2,2,2-trifluoroethyl)amino)-4-(difluoromethyl)pyridin-3-yl)-N—((S)-3-hydroxy-3-methylbutan-2-yl)thiazole-2-carboxamide] | 8.62 | – | – | 106% | – | – | – | 7.85
C[C@H]1CC(F)(F)CN1C(=O)c1nc(C(=O)NCC(C)(C)O)sc1-c1cnc(NC(C2CC2)C2CC2)cc1C(F)(F)F [Example 138, (S)-5-(6-((Dicyclopropylmethyl)amino)-4-(trifluoromethyl)pyridin-3-yl)-4-(4,4-difluoro-2-methylpyrrolidine-1-carbonyl)-N-(2-hydroxy-2-methylpropyl)thiazole-2-carboxamide] | 9.21 | – | 7.92 | – | – | 100*** % | – | –
CCC(C)(C)Nc1cc(C(F)(F)F)c(-c2sc(C(=O)NCC(C)(C)O)nc2C(=O)N2CCCC[C@@H]2C)cn1 [Example 108, (S)—N-(2-Hydroxy-2-methylpropyl)-4-(2-methylpiperidine-1-carbonyl)-5-(6-(tert-pentylamino)-4-(trifluoromethyl)pyridin-3-yl)thiazole-2-carboxamide] | 10.15 | 104* % | 7.33 | – | – | – | – | –
C[C@@H](Nc1cc(C(F)(F)F)c(-c2sc(C(=O)NCC(C)(C)O)nc2C(=O)N2CCC[C@@H]2C)cn1)C1CC1 [Example 48, 5-(6-(((R)-1-Cyclopropylethyl)amino)-4-(trifluoromethyl)pyridin-3-yl)-N-(2-hydroxy-2-methylpropyl)-4-((S)-2-methylpyrrolidine-1-carbonyl)thiazole-2-carboxamide] | 7.96 | 111* % | 7.64 | – | – | – | – | –
C[C@H]1CCCN1C(=O)c1nc(C(=O)NC2CS(=O)(=O)C2)sc1-c1cnc(NC2CCCC2)cc1C(F)F [Example 61, (S)-5-(6-(Cyclopentylamino)-4-(difluoromethyl)pyridin-3-yl)-N-(1,1-dioxidothietan-3-yl)-4-(2-methylpyrrolidine-1-carbonyl)thiazole-2-carboxamide] | 8.15 | 103* % | 7.89 | – | – | – | – | –
C[C@H](Nc1cc(C(F)F)c(-c2sc(C(=O)N[C@H]3C[C@H](O)C3)nc2C(=O)N2C3CCC2CC3)cn1)C(F)(F)F [Example 221, 4-((1s,4s)-7-Azabicyclo[2.2.1]heptane-7-carbonyl)-5-(4-(difluoromethyl)-6-(((1S)-2,2,2-trifluoro-1-methyl-ethyl)amino)-3-pyridyl)-N-((1r,3S)-3-hydroxycyclobutyl)thiazole-2-carboxamide] | 7.57 | 103* % | 7.11 | – | – | – | – | –

Second part, led by results:

pKd [1] | RORγt (FL) Reporter Assay B or C, % inhibition (value marked *) (full-length human RORγt; Conditions B or C) | pIC50 (full-length human RORγt; [2]) | inhibition at 3 µM (full-length human RORγt; [3]) | pIC50 (full-length human RORγt; [4]) | RORγt (FL) Reporter Assay B or C, % inhibition (value marked ***) (full-length human RORγt; Conditions B or C, marked ***: footnote not given) | inhibition at 0.3 µM (full-length human RORγt; at 0.3 μM compound concentration, read-out: RORγt (FL) Reporter Assay B or C, % inhibition) | Structure (SMILES) | pIC50 (full-length human RORγt; RORγt (FL) Reporter Assay B or C, IC50)
9.23 | 103* % | 7.62 | – | – | – | – | CC[C@H](Nc1cc(C(F)F)c(-c2sc(C(=O)N[C@H](C)C(C)(C)O)nc2C(=O)N2CCCC[C@@H]2C)cn1)C(F)(F)F [Example 241, 5-[4-(Difluoromethyl)-6-[[(1S)-1-(trifluoromethyl)propyl]amino]-3-pyridyl]-N-[(1R)-2-hydroxy-1,2-dimethyl-propyl]-4-[(2S)-2-methylpiperidine-1-carbonyl]thiazole-2-carboxamide] | –
8.66 | – | – | 106% | 7.57 | – | – | C[C@H](NC(=O)c1nc(C(=O)N2CCC[C@@H]2C)c(-c2cnc(N[C@@H](C3CC3)C(F)(F)F)cc2C(F)F)s1)C(C)(C)O [Example 312, 5-(6-(((S)-1-Cyclopropyl-2,2,2-trifluoroethyl)amino)-4-(difluoromethyl)pyridin-3-yl)-N—((S)-3-hydroxy-3-methylbutan-2-yl)-4-((S)-2-methylpyrrolidine-1-carbonyl)thiazole-2-carboxamide] | –
8.54 | – | – | 104% | 7.19 | – | – | C[C@H](Nc1cc(C(F)F)c(-c2sc(C(=O)N[C@H]3CCC[C@@H]3O)nc2C(=O)N2CCC[C@@H]2C)cn1)C(F)(F)F [Example 285, 5-(4-(Difluoromethyl)-6-(((S)-1,1,1-trifluoropropan-2-yl)amino)pyridin-3-yl)-N-((1S,2S)-2-hydroxycyclopentyl)-4-((S)-2-methylpyrrolidine-1-carbonyl)thiazole-2-carboxamide] | –
8.80 | – | – | 95% | 7.70 | – | – | C[C@H]1CCCN1C(=O)c1nc(C(=O)NC[C@H](O)C(F)(F)F)sc1-c1cnc(NC(C)(C)C)cc1C(F)(F)F (relative stereo) [Example 353, 5-(6-(tert-Butylamino)-4-(trifluoromethyl)pyridin-3-yl)-4-((S)-2-methylpyrrolidine-1-carbonyl)-N—((S*)-3,3,3-trifluoro-2-hydroxypropyl)thiazole-2-carboxamide] | –
7.89 | 104* % | 6.52 | – | – | – | – | CC[C@H](Nc1cc(C(F)F)c(-c2sc(C(=O)N[C@H]3C[C@H]3O)nc2C(=O)N2CCC[C@@H]2C)cn1)C(F)(F)F (relative stereo) [Example 212, 5-(4-(Difluoromethyl)-6-(((S)-1,1,1-trifluorobutan-2-yl)amino)pyridin-3-yl)-N-((1S*,2R*)-2-hydroxycyclopropyl)-4-((S)-2-methylpyrrolidine-1-carbonyl)thiazole-2-carboxamide] | –
8.70 | – | – | 99% | 7.85 | – | – | C[C@H]1CC(F)(F)CN1C(=O)c1nc(C(=O)NCC(C)(C)O)sc1-c1cnc(NCC2(C(F)(F)F)CC2)cc1C(F)F [Example 275, 4-[(2S)-4,4-Difluoro-2-methyl-pyrrolidine-1-carbonyl]-5-[4-(difluoromethyl)-6-[[1-(trifluoromethyl)cyclopropyl]methylamino]-3-pyridyl]-N-(2-hydroxy-2-methyl-propyl)thiazole-2-carboxamide] | –
8.42 | – | – | – | 7.82 | – | 98% | C[C@H]1CCCN1C(=O)c1nc(C(=O)N[C@H]2CC[C@@H]2O)sc1-c1cnc(NC(C)(C)C)cc1C(F)F (relative stereo) [Example 404, 5-(6-(tert-Butylamino)-4-(difluoromethyl)pyridin-3-yl)-N-((1S*,2S*)-2-hydroxycyclobutyl)-4-((S)-2-methylpyrrolidine-1-carbonyl)thiazole-2-carboxamide] | –
